Reference: ChEMBL document CHEMBL1201862, “PubChem BioAssay data set” (2004)
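Briefly, cells in 96-well plates were exposed to five compound concentrations for 48 h, and endpoints were estimated by linear interpolation. At the GI50, growth is halved.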 The source made the active and inactive calls. Rule as the data show it: active = GI50 up to about 1.1 µM and inactive = higher.

Legend:
Test in all cases: NCI tumour cell line growth inhibition, 48 h
[1] = test system: OVCAR-3
[2] = test system: HOP-92
[3] = test system: HCT-116
[4] = test system: KM12
[5] = test system: U-251
[6] = test system: OVCAR-4
[7] = test system: EKVX
[8] = test system: NCI-H522
[9] = test system: NCI-H226
[10] = test system: RPMI-8226
[11] = test system: SNB-19
[12] = test system: UACC-62
[13] = test system: SR
[14] = test system: ACHN
[15] = test system: COLO 205
[16] = test system: CCRF-CEM
[17] = test system: HCC 2998
[18] = test system: HL-60

Measured: GI50

COCCOc1cc(C)cc(/C=C(C)/C=C/C2=C(C)CCCC2(C)C)n1
inactive: [1] > 100 µM | [2] 38.6 µM | [3] 30.7 µM | [4] 70.6 µM | [5] 62.4 µM | [6] 59.2 µM | [7] 38.2 µM | [8] 28.9 µM | [9] 32.1 µM | [10] 14.8 µM | [11] > 100 µM | [12] > 100 µM | [13] 16.5 µM | [14] 84.3 µM | [15] 54 µM

COC(=O)[C@@]12C3=NO[C@]1(C(=O)OC)C(O[Si](C)(C)C(C)(C)C)[C@@H](OC(C)=O)[C@@H](OC(C)=O)[C@@H]2[C@@H](OCc1ccccc1)CC3 (stereo partly drawn)
inactive: [1] 13.5 µM | [2] 2.22 µM | [3] 5.07 µM | [4] > 100 µM | [5] 8.99 µM | [6] 4.82 µM | [7] > 27.7 µM | [16] 5.45 µM | [17] > 100 µM | [8] 3.86 µM | [9] 14.9 µM | [10] 4.42 µM | [11] 8.81 µM | [12] > 43.6 µM | [14] 4.44 µM | [15] > 100 µM | [18] 3.86 µM

COc1ccc(/C=C/C(=O)c2sc(NC(=S)NC(=O)c3ccccc3F)nc2C)cc1OC
inactive: [1] > 100 µM | [2] 98.9 µM | [4] > 100 µM | [5] > 100 µM | [7] > 100 µM | [16] 35.6 µM | [17] > 100 µM | [8] 21.5 µM | [10] 36.2 µM | [11] > 100 µM | [12] 85.9 µM | [14] > 100 µM | [15] 51.5 µM | [18] 46.2 µM

CC(=O)NC1=C(NCCO)C(=O)c2ccccc2C1=O
inactive: [1] 18.9 µM | [3] 30.1 µM | [4] > 50 µM | [5] > 50 µM | [6] > 50 µM | [7] > 50 µM | [16] 42.6 µM | [17] > 50 µM | [8] 24.5 µM | [9] > 50 µM | [11] > 50 µM | [12] > 50 µM | [13] > 50 µM | [14] > 50 µM | [15] > 50 µM | [18] 20.8 µM

COc1ccc(N(C)CN(C)c2nc(N(C)C)nc(N(C)C)n2)cc1
inactive: [1] > 100 µM | [2] > 100 µM | [3] > 100 µM | [4] > 100 µM | [5] > 100 µM | [6] > 100 µM | [7] > 100 µM | [16] > 100 µM | [8] > 100 µM | [10] > 100 µM | [11] > 100 µM | [12] > 100 µM | [13] > 100 µM | [14] > 100 µM | [15] > 100 µM | [18] > 100 µM

O=C1c2cccc3cccc(c23)C(=O)N1CCCN1CCN(CCCN2C(=O)c3cccc4cccc(c34)C2=O)CC1
inactive: [1] > 100 µM | [2] > 100 µM | [3] > 100 µM | [4] > 100 µM | [5] > 100 µM | [6] > 100 µM | [7] > 100 µM | [16] 32.8 µM | [17] > 100 µM | [9] > 100 µM | [10] > 100 µM | [11] > 100 µM | [12] > 100 µM | [14] > 100 µM | [15] > 100 µM | [18] > 100 µM

C=C1CC2(CCS(=O)(=O)c3ccccc32)OC1=O (stereo not drawn)
inactive: [1] 7.52 µM | [2] 3.72 µM | [4] 16 µM | [5] 13.2 µM | [6] 13.7 µM | [7] 18 µM | [16] 2.24 µM | [17] 21.9 µM | [8] 2.82 µM | [9] 10.9 µM | [10] 2.74 µM | [11] 10.2 µM | [12] 15.9 µM | [14] 11.5 µM | [15] 2.99 µM | [18] 2.96 µM

COc1ccc(C)cc1-c1ccc(-c2cc(C)ccc2OC)o1
inactive: [1] > 100 µM | [2] 54.6 µM | [3] > 100 µM | [4] > 100 µM | [5] > 100 µM | [6] > 100 µM | [7] > 100 µM | [16] 68.4 µM | [17] > 100 µM | [8] > 100 µM | [9] > 100 µM | [10] > 100 µM | [11] > 100 µM | [12] > 100 µM | [14] > 100 µM | [15] > 100 µM | [18] 86.5 µM

C=C[C@H]1C=Cc2c(OC)cccc2[C@@H]1COP1(=S)NC(C)C(c2ccccc2)O1 (stereo partly drawn)
inactive: [1] > 100 µM | [3] 52.8 µM | [4] > 100 µM | [5] 86.3 µM | [6] > 100 µM | [7] > 100 µM | [16] 42 µM | [17] 92 µM | [8] 29.4 µM | [9] 67.5 µM | [10] 27 µM | [11] > 100 µM | [12] 84.5 µM | [15] 97.3 µM | [18] 18.9 µM

COC(=O)[C@]1(C)CCC[C@@]2(C)C1CCC1=C[C@@]3(C(C)C)CC[C@]12OO3 (stereo partly drawn)
inactive: [1] 27.8 µM | [3] 25.2 µM | [4] 24.6 µM | [5] 41.8 µM | [6] 42.3 µM | [7] 36.6 µM | [16] 17.9 µM | [17] 31.3 µM | [8] 17.8 µM | [9] 26.3 µM | [10] 18.2 µM | [11] 58.2 µM | [12] 25.3 µM | [13] 19.4 µM | [14] 36.4 µM | [15] 22.5 µM | [18] 19.1 µM

C[C@]12CCC(=O)C=C1CC[C@@H]1C2CC[C@]2(C)Nc3c(cnn3-c3ccccc3)CC12 (stereo partly drawn)
inactive: [1] > 10 µM | [3] > 100 µM | [4] > 10 µM | [5] > 100 µM | [6] > 100 µM | [7] > 100 µM | [16] > 100 µM | [17] > 100 µM | [9] > 100 µM | [10] > 100 µM | [12] > 100 µM | [14] > 100 µM | [18] > 100 µM

CCOC(=O)C(=O)Nc1ccccc1OCC
inactive: [1] > 100 µM | [2] > 100 µM | [3] > 100 µM | [4] > 100 µM | [5] > 100 µM | [6] > 100 µM | [7] > 100 µM | [16] > 100 µM | [17] > 100 µM | [8] > 100 µM | [9] > 100 µM | [10] > 100 µM | [11] > 100 µM | [12] > 100 µM | [14] > 100 µM | [18] > 100 µM
